Molecules are shown by their SMILES. pIC50: −log10 of the molar value. Converted amounts (≈) assume the structure as drawn. Read-outs that look alike come from different tables or passages of the source.

A short description of data set [1]: Kinetic Turbidimetric Aqueous Solubility at room temperature for 5 min. Format: physicochemical. As to conditions: kinetic from dmso stock, PBS buffer, 2% DMSO. An outline of the steps: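 Compound diluted in PBS across typically 0.4–200 μM (final DMSO 2%), held 5 min at room temperature. Turbidity read as absorbance at 620 nm against vehicle control. Four-parameter sigmoidal fit of normalized absorbances with AUC calculation gives Log S.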

Data set [2] deals with T1, PqsR (Pseudomonas aeruginosa, UniProt Q9I4X0). As to the kind of experiment: E. coli based β-galactosidase reporter gene assay (PqsR inverse agonistic activity). Format: cell-based. More on the design: expressed in transfected cells; host or cells: Escherichia coli DH5α. An outline of the steps:
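E. coli DH5α carrying pEAL08-2 (tac-driven pqsR with pqsA-lacZ) was grown to OD600 0.2 and incubated with 0.001–10 μM compound plus 50 nM PQS for 2.5 h at 37 °C. β-Galactosidase activity was measured by ONPG conversion in permeabilized cells and normalized between the no-PQS and solvent controls. IC50 came from concentration variation.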
In general terms: In a reporter assay the amount or activity of a reporter protein is the signal.

For data set [3], the system named is P. aeruginosa pyocyanin production. As to the kind of experiment: Pyocyanin assay. As to conditions: Pseudomonas aeruginosa, PA14, 16 h, read-out: IC50-value towards pyocyanin production, PA14 in PPGAS medium, 16 h. Format: cell-based, P. aeruginosa PA14. The method in brief: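 PA14 in PPGAS medium from OD600 0.02 grown 16 h at 37 °C, 200 rpm, with compounds. Pyocyanin extracted with chloroform, back-extracted into 0.2 M HCl, OD520 normalised to OD600.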

Data set [4] is described as follows: Turbidimetric Aqueous Solubility at 37° C. for 2 h. The class given is physicochemical. As to conditions: aqueous buffer, kinetic from dmso stock, 1% DMSO in buffer, estimated precipitation range. How it is done:
Turbidimetric Aqueous Solubility at 37° C. for 2 h. Test compound was diluted in buffer to give a range of concentrations (typically 1, 3, 10, 30 and 100 μM, final DMSO concentration 1%) and incubated at 37° C. for 2 hr. Absorbance was measured at a wavelength of 620 nm and the solubility was estimated from the concentration of test compound that produces an increase in absorbance above the vehicle control (i.e., 1% DMSO in buffer). An estimated precipitation range (lower and upper bound) was provided as result.

The nature of data set [5]: Metabolic stability in mouse liver microsomes (MLM). The class given is in vitro ADME. As to conditions: 1 μM compound, 0.5 mg/mL MLM, 1 mM NADPH, 37° C., read-out: half-life (t1/2) towards MLM. The method in brief: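 Phase I stability: 1 μM compound incubated at 37° C with 0.5 mg/mL mouse liver microsomes and 1 mM NADPH, sampled at 0-30 min and quenched in acetonitrile. Remaining parent measured by HPLC-MS/MS to derive half-life.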
(Liver microsomes are a subcellular fraction often used to study metabolism.)

Another data set concerns HepG2 cells. In words: Cytotoxicity (MTT) toward HepG2. Format: cell-based. As to conditions: Homo sapiens, 48 h, upper class: or at solubility maximum, read-out: IC50-value towards HepG2. How it is done: (§1) To obtain information regarding the toxicity of our compounds, their impact on the viability of human cells was investigated. HepG2 and HEK293 cells (2×10^5 per well) were seeded in 24-well, flat-bottomed culture plates. 24 h after seeding the cells the incubation was started by the addition of compounds in a final DMSO concentration of 1%. The living cell mass was determined 48 h after treatment with compounds by adding 0.1 volumes of 3-(4,5-dimethylthiazol-2-yl)-2,5-diphenyltetrazolium bromide (MTT) solution (5 mg per mL sterile PBS) (Sigma, St. Louis, MO) to the wells. After incubating the cells for 30 min at 37° C. (atmosphere containing 5% CO2), MTT crystals were dissolved in a solution containing 10% SDS and 0.5% acetic acid in DMSO. The optical density (OD) of the samples was determined photometrically at 570 nm in a FLUOstar Omega plate reader (BMG labtech, Ortenberg, Germany). To obtain inhibition values for each sample, their ODs were related to those of DMSO controls.

The next data set concerns HEK293 cells. As to the kind of experiment: Cytotoxicity (MTT) toward HEK293. The class given is cell-based. As to conditions: Homo sapiens, 48 h, upper class: or at solubility maximum, read-out: IC50-value towards HEK293. How it is done:
as §1

Data set [6] has as its system P. aeruginosa PA14 biofilm. In words: Biofilm assay, crystal violet staining (biofilm mass). As to conditions: Pseudomonas aeruginosa, PA14, PPGAS medium, read-out: IC50-value towards biofilm formation. The class given is cell-based. How it is done: (§2) Commonly used crystal violet (CV) assay procedures (PMID: 3905855, PMID: 10547784, PMID: 22488868) were adapted for determination of biofilm mass. For the cultivation of biofilm in 96 well plates, the protocol described by Frei et al. (PMID: 22488868) was slightly modified by replacement of medium and Pseudomonas strain used. The experiment was performed using P. aeruginosa PA14 strain and PPGAS medium. CV staining was used to detect compound effects on the overall biofilm biomass. Impact on eDNA was assessed by incubation of biofilm with propidium iodine solution (0.05 mg ml^−1) for 24 h and detection of specific florescence at 620 nm (excitation 544 nm) after a thorough washing step with 18 MΩ H2O. (PMID: 16430688)

Data set [7] deals with eDNA content of P. aeruginosa PA14 biofilm. As to the kind of experiment: Biofilm assay, eDNA content (propidium iodine). As to conditions: Pseudomonas aeruginosa; PA14, propidium iodine fluorescence; read-out: IC50-value towards eDNA content of the biofilm. The class given is cell-based. How it is done:
as §2

Data set [8] can be described thus: Metabolic stability against human hepatic S9 fraction. The class given is in vitro ADME. How it is done:
For the evaluation of combined phase I and phase II metabolic stability, the compound (1 μM) was incubated with 1 mg/mL pooled human liver S9 fraction (BD Gentest), 2 mM NADPH regenerating system, 1 mM UDPGA, 10 mM MgCl2 and 0.1 mM PAPS at 37° C. for 0, 5, 15, 30 and 60 min. The metabolic stability of Testosterone (1 μM) and 7-hydroxycoumarin (1 μM) were determined in parallel to confirm the enzymatic activity of the S9 fraction. The incubation was stopped by precipitation of S9 enzymes with 2 volumes of cold acetonitrile containing internal standard (750 nM Diphenhydramine). Samples were stored on ice for 10 min and precipitated protein was removed by centrifugation (10 min, 4° C., 17,000 g). Concentration of the remaining test compound at the different time points was analyzed by LC-MS/MS (TSQ Quantum Access MAX, Thermo Fisher, Dreieich, Germany) and used to determine half-life (t/2).

The subject of data set [9] is production of signal molecules HHQ and PQS. As to conditions: cited from earlier work.
The subject of another data set is pyocyanin production. As to conditions: in cellulo; read-out: inhibition of virulence factor pyocyanin production IC50; cited from earlier work.
In data set [10] the target is T1, PqsR. Set-up: host or cells: P. aeruginosa. As to conditions: read-out: IC50 in P. aeruginosa reporter gene assay; cited from earlier work.
The target of data set [11] is T1, PqsR. More on the design: expressed in transfected cells; host or cells: Escherichia coli DH5α. As to conditions: read-out: IC50 in E. coli reporter gene assay; cited from earlier work.
Where [12] appears, read: pooled human liver S9 fraction, 1 μM compound, 1 mg/mL pooled human liver S9, phase I and II cofactors, 37° C., read-out: half-life (t1/2) towards human hepatic S9 fraction.

T1 sequence (Q9I4X0 whole entry): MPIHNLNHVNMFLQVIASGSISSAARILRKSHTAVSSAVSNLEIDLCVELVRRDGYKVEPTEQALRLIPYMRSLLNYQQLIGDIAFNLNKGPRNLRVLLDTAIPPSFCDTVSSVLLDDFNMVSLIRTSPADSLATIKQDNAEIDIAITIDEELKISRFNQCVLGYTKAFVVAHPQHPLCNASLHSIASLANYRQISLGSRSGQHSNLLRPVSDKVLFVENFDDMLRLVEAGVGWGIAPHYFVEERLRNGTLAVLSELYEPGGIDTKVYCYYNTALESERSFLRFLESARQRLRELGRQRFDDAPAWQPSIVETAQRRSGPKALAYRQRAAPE

In the case of `CC(C)Oc1ccc(-c2ncc(CNc3ccnc(C(F)(F)F)c3)cn2)cc1Cl` [Compound 108, N-((2-(3-Chloro-4-isopropoxyphenyl)pyrimidin-5-yl)methyl)-2-(trifluoromethyl)pyridin-4-amine], in data set [1] (aqueous buffer), the solubility at 5 min was more than 25 µM. Further, the pIC50 on PqsR [2] is not below 7.30; in [3] it was not below 6.60. Also, the solubility at 2 h in [4] is 10 to 30 µM (≈ 4.23 to 12.7 µg/mL).
In data set [1], `FC(F)(F)Oc1ccc(-n2cc(CNc3ccnc(C(F)(F)F)c3)nn2)cc1Cl` [Compound 022, N-((1-(3-Chloro-4-(trifluoromethoxy)phenyl)-1H-1,2,3-triazol-4-yl)methyl)-2-(trifluoromethyl) pyridin-4-amine] gave a solubility at 5 min of more than 25 µM. For the same compound, the half-life at 1 μM in data set [5] was in the range of 0.517 to 1 h. Besides, the negative logarithm of the IC50 (pIC50) in the data set with HepG2 cells is 4.30 to 4.60; on PqsR [2], not below 7.30; in data set [3], 6.00 to 6.60; with HEK293 cells, 4.30 to 4.60.
For `FC(F)(F)c1cc(NCc2cn(-c3ccc(Oc4ccccc4)cc3)nn2)ccn1` [Compound 001, N-((1-(4-Phenoxyphenyl)-1H-1,2,3-triazol-4-yl)methyl)-2-(trifluoromethyl) pyridin-4-amine], the negative logarithm of the IC50 (pIC50) is 4.30 to 4.60 in the data set on HepG2 cells; not below 6.30 in data set [6]; more than 6.30 in data set [7]; not below 7.30 at PqsR [2]; not below 6.60 in data set [3]; 4.30 to 4.60 in the data set with HEK293 cells. In addition, the half-life at 1 μM in data set [8] (setting [12]) lay within 0.683 to 1 h.
In the case of `Nc1cccc(F)c1C(=O)O` [Compound 6FABA], the pIC50 in data set [9] (inhibitor targeting the enzyme PqsA, read-out: IC50 for reduction of production of signal molecules HHQ and PQS) was approximately 4.00.
On to `FC(F)(F)c1cc(NCc2cnc(-c3ccc(Oc4ccccc4)cc3)s2)ccn1` [Compound 071, N-((2-(4-Phenoxyphenyl)thiazol-5-yl)methyl)-2-(trifluoromethyl)pyridin-4-amine], for which the pIC50 with HepG2 cells was 4.30 to 4.60; on PqsR [2] it was not below 7.30; in data set [3], 6.00 to 6.60; in the data set on HEK293 cells, 4.30 to 4.60. The same compound came in with a half-life at 1 μM in data set [8] (human, s9) of more than 1 h.
For the compound `FC(F)(F)c1cc(SCc2nc3ccc(Oc4ccccc4)cc3o2)ccn1` [Compound 132, 6-Phenoxy-2-(((2-(trifluoromethyl)pyridin-4-yl)thio)methyl)benzo[d]oxazole], in [8] (setting [12]), the half-life at 1 μM was more than 1 h. The negative logarithm of the IC50 (pIC50) is 6.60 to 7.29 on PqsR [2], 6.00 to 6.60 in data set [3] and 4.30 to 4.60 in the data set on HEK293 cells. The solubility at 2 h in data set [4] was 10 to 30 µM (≈ 4.02 to 12.1 µg/mL).
Regarding `COc1ccc(-n2cc(CNc3ccnc(C(F)(F)F)c3)nn2)cc1Cl` [Compound 017, N-((1-(3-chloro-4-methoxyphenyl)-1H-1,2,3-triazol-4-yl)methyl)-2-(trifluoromethyl)pyridin-4-amine], the solubility at 5 min in [1] was more than 50 µM. The pIC50 is not below 6.30 in [6], not below 7.30 on PqsR [2] and 6.00 to 6.60 in [3]. Also, the half-life at 1 μM in data set [8] (setting [12]) was in the range of 0.683 to 1 h. In addition, in data set [4], the solubility at 2 h is 10 to 30 µM (≈ 3.84 to 11.5 µg/mL).
For the compound `CCCCCCCc1[nH]c2ccc([N+](=O)[O-])cc2c(=O)c1C(N)=O` [2-heptyl-6-nitro-4-oxo-1,4-dihydroquinoline-3-carboxamide], the “reduction of HHQ production” value in [9] (at 15 μM) is reported as 54%. Besides, the “reduction of PQS production” value in data set [9] (at 15 μM) is reported as 37%. The pIC50 in the data set with pyocyanin production was 5.70; at PqsR [10], 6.40; on PqsR [11] it was 7.46.

For orientation: solubility means how much of the substance goes into solution per volume. The pIC50 is the negative decadic logarithm of the IC50, by convention in mol/L.

(Values after patent US11883387B2, “PqsR inverse agonists” (HELMHOLTZ-ZENTRUM FÜR INFEKTIONSFORSCHUNG GMBH, priority 2018, dated 2024).)
